Legend:
[1] = target: T1, ovine COX-1 (Ovis aries, UniProt P05979); test: COX Fluorescent Inhibitor Screening Assay, COX-1; type: biochemical; conditions: in duplicate
T1 construct: purchased Cayman Chemical Company
T1 sequence (P05979 25-600): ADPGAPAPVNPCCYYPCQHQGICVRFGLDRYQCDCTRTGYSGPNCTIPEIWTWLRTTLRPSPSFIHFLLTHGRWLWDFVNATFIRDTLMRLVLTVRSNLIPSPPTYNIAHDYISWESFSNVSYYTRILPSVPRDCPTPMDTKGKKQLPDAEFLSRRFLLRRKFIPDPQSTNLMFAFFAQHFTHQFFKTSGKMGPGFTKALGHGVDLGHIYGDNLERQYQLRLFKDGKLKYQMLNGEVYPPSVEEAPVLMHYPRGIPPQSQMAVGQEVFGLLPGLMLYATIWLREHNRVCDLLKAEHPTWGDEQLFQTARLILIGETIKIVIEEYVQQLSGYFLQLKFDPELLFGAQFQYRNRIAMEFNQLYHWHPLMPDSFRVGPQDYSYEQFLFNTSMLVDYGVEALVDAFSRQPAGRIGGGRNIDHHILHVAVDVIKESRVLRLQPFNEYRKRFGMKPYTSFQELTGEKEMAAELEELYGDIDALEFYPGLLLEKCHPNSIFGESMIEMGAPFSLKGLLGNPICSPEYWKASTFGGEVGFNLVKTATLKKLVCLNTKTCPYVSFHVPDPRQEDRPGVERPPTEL
Experimental: COX inhibition activity against ovine COX-1 and human COX-2 was determined using the fluorescence-based COX assay COX Fluorescent Inhibitor Screening Assay Kit (Cayman Chemical Company, Ann Arbor, MI, USA) according to the manufacturer’s instructions as previously reported by us. All compounds were screened at a concentration of 100 µM in duplicate.

[2] = tested on: MDA-MB-231 triple-negative breast adenocarcinoma; test: Cell viability, MTT assay, MDA-MB-231; type: cell-based, human; conditions: 72 h, mean ± SD
Experimental: Five human cell lines (A375 melanoma, A549 lung adenocarcinoma, HCT116 and HT29 colorectal carcinoma, MDA-MB-231 triple-negative breast adenocarcinoma) were used to study the antitumor effects of the di-tert-butylphenols and their respective carborane analogs. All selected cell lines were derived from inflammation-associated tumors.
After the incubation period, the supernatant was discarded from the wells, and the cells were washed two times with 200 µL of PBS. Next, MTT solution at a final concentration of 0.5 mg/mL was added and incubated at 37 °C until purple formazan crystals were formed (30 min to one hour). After incubation, the dye was discarded. In order to dissolve the formed formazan crystals DMSO was added, and the absorbance was measured at λmax = 540 nm, with the reference/background wavelength of 670 nm. All results are expressed as a percentage of the control value which was arbitrary set to 100%. After 72 h treatment, cells were washed with 200 µL of PBS and fixed with 4% paraformaldehyde (PFA) for 15 min at room temperature (RT). Next, cells were stained with 1% CV solution. After 20 min, cells were washed in tap water and dried on air. Dye was dissolved in 33% acetic acid and the absorbance was measured at λmax = 540 nm, with the reference/background wavelength of 670 nm. Results were expressed as a percentage of the control value which was arbitrary set to 100%.
1. General methods, materials, and procedures
1.1.1. Reagents and cells
Reagents and cells were obtained from following manufacturers: Capricorn Scientific GmbH (Hessen, Germany) – Culture medium RPMI-1640, Dulbecco's Modified Eagle Medium (DMEM), and fetal bovine serum (FBS). Serva (Heidelberg, Germany) – Paraformaldehyde (PFA). Sigma (St. Louis, MO, USA) – Ethylenediaminetetraacetic acid (EDTA), Dimethyl sulfoxide (DMSO), chloroquine, CV, Triton X-100, RNase, PI, PBS, 3-MA, CFSE, and fluorescent mounting medium. AppliChem (MO, USA) –MTT. Thermo Fisher Scientific (Waltham, MA, USA) – DHR. R&D Systems (Minneapolis, MN, USA) – ApoStat. BD (Pharmingen, San Diego, SAD) – Annexin V-FITC (AnnV). Biological Industries (Cromwell, CT, USA) – Penicillin Streptomycin solution. American Type Culture Collection (ATCC, Manassas, Virginia, USA) – Human lung carcinoma (A549), human breast adenocarcinoma (MDA-MB-231), human colorectal ade-nocarcinoma (HT-29), human colorectal carcinoma (HCT116) and human melanoma (A375).
Cell lines (A375, HCT116, HT-29 and MDA-MB-231) were cultivated in HEPES-buffered RPMI-1640 medium while A549 cell line was cultivated in Dulbecco's Modified Eagle Medium (DMEM) which were previously supplemented with 10% heat-inactivated FBS, penicillin (100 units/mL), and streptomycin (100 μg/mL). All cells were kept at 37 °C in a humidified atmosphere with 5% CO2. For viability determi-nation cells were seeded at following densities in 96-well plates: 4 x 10^3 cells/well (A375, HT-29 and MDA-MB-231), 5 x 10^3 cells/well (HCT116), and 3 x 10^3 cells/well (A549). […]
Afterwards, cells were washed with phosphate-buffered saline (PBS) and stained with AnnV (15 μg/mL) and PI (15 μg/mL). After 15 min incubation at room temperature (RT) protected from light the cells were resuspended in AnnV-binding buffer and analysed using flow cytom-etry. HCT116 cells were incubated with pan-caspase inhibitor Apostat for 30 min at 37 °C to determine whether detected apoptosis was mediated by caspase activation. Afterwards, cells were washed with PBS and analyzed using flow cytometry. HCT116 cells were stained with 1 µg/mL of AO solution for 15 min at 37 °C to detect the presence of autophagic cell death. Afterwards cells were washed with PBS, resuspended and analyzed by flow cytometry (CyFlow® Space Partec using the PartecFloMax® software

Row | Substance | % Inhibition at 100 µM COX-1 [1] | IC50 [2]
1 | 1-Hydroxy-12-(thiophen-2′-carbonyl)-1,12-dicarba-closo-dodecaborane(12) [Compound R-830-Cb] | 18% | 46.5 ± 0.1 µM
2 | (3E)-1-Hydroxy-12-(methylene-[2′-ethylisothiazolidine-1′,1′-dioxide])-1,12-dicarba-closo-dodecaborane(12) [Compound S-2474-Cb] | n.i. (n.i. = no inhibition (%inhibition below 5%)) | > 200 µM
3 | (3E)-1-Hydroxy-12-(methylene-[1′-methoxypyrrolidine-2′-one])-1,12-dicarba-closo-dodecaborane(12) [Compound E-5110-Cb] | n.i. (n.i. = no inhibition (%inhibition below 5%)) | 
4 | (3E)-1-Hydroxy-12-(methylene-[dihydrofurane-2′(3H)-one])-1,12-dicarba-closo-dodecaborane(12) [KME-4-Cb] | 26% | 120 ± 3.9 µM

Reference: article PMC10254233, “Synthesis and In Vitro Biological Evaluation of p-Carborane-Based Di-tert-butylphenol Analogs” (Molecules, 2023)
